The source of these data is paper PMC6800369 (Proceedings of the National Academy of Sciences of the …, 2019).

One assay deals with T1, PRK (Thermosynechococcus vestitus, UniProt Q8DHN2).
T1 sequence (Q8DHN2 1-334): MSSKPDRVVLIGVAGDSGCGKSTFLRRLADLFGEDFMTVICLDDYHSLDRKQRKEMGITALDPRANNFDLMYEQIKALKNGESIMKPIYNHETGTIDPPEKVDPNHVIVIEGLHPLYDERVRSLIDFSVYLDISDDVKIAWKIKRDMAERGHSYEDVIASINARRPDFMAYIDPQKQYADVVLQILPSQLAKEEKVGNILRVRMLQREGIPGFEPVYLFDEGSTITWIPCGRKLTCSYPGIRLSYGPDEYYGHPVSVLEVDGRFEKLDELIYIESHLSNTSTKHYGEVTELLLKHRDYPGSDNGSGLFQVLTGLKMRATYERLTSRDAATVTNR
Description: ADP production, coupled assay with ADP-hexokinase. The class given is biochemical. Particulars: ternary complex reduced with DTT.

Another assay has as its target T2, GAPDH (Thermosynechococcus vestitus, UniProt Q8DIW5).
T2 sequence (Q8DIW5 1-337): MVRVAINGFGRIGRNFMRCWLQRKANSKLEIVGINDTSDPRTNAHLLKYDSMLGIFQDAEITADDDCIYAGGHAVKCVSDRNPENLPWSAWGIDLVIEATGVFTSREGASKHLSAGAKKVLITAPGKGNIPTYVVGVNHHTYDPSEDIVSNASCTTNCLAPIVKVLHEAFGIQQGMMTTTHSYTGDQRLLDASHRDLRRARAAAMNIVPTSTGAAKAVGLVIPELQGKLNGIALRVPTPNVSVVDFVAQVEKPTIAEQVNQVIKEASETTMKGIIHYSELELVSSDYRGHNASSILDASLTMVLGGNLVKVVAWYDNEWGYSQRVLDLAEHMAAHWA
Put plainly: X-ray crystal structure. The assay is classed as binding.

A further assay has as its target T3, GAPDH-CP12 (Thermosynechococcus vestitus, UniProt Q8DIW5).
T3 sequence (Q8DIW5 1-337): T2 sequence (Q8DIW5 1-337)
T3 sequence (Q8DHX3 1-75 partner): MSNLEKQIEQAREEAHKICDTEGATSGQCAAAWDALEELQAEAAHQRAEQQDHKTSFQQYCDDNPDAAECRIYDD
Put plainly: X-ray crystal structure. The class given is binding. To be noted: proximal (CP12-occupied) and distal sites.

As to `Nc1ncnc2c1ncn2[C@@H]1O[C@H](COP(=O)(O)OP(=O)(O)OP(=O)(O)O)[C@@H](O)[C@H]1O` [ATP], the “ADP production, coupled assay with ADP-hexokinase” value on PRK (co-substrate ribulose 5-phosphate) is “measuring ADP production from ATP and ribulose 5-phosphate (Ru5P)”.
Consider `NC(=O)c1ccc[n+]([C@@H]2O[C@H](COP(=O)(O)OP(=O)(O)OC[C@H]3O[C@@H](n4cnc5c(N)ncnc54)[C@H](OP(=O)(O)O)[C@@H]3O)[C@@H](O)[C@H]2O)c1` [NADP^+], for which the X-ray crystal structure result at GAPDH (NAD+ exchanged for NADP+ by turnover) is on record as “this could be exchanged for NADP^+ by turning over the enzyme”.
As for `NC(=O)c1ccc[n+]([C@@H]2O[C@H](COP(=O)(O)OP(=O)(O)OC[C@H]3O[C@@H](n4cnc5c(N)ncnc54)[C@H](O)[C@@H]3O)[C@@H](O)[C@H]2O)c1` [NAD^+], the X-ray crystal structure result on GAPDH-CP12 was “The CP12-bound (proximal) site makes extensive contacts with both NAD^+ and GAPDH”; at GAPDH (NAD+ bound from E. coli expression) it was “GAPDH-NAD^+, GAPDH-NADP^+”.
As to `O=C(CO)[C@H](O)[C@H](O)COP(=O)(O)O` [ribulose 5-phosphate], the “ADP production, coupled assay with ADP-hexokinase” value at PRK (co-substrate ATP) is “measuring ADP production from ATP and ribulose 5-phosphate (Ru5P)”.
